Test system: IL-1β
Experiment: Real-time PCR of IL-1β mRNA in LPS-stimulated A549 cells
Format: cell-based, human
Details: LPS 5 ug/mL, 5 to 40 µM, 24 hours, effect proportional to amount (FIG. 3B)
Procedure: A549 cells were dispensed into 6-well plates (1 × 10^6 cells/well) and cultured under conditions of 37°C and 5% CO2. After the culturing, the A549 cells were treated with of 5 ug/mL of lipopolysaccharide (LPS) and with 5 µM to 40 µM of gancaonin N, and the cells were then cultured for 24 hours. Afterwards, total RNA was isolated from each treated cell using Hybrid-RTM (GeneAll, South Korea). The isolated total RNA (500 ng) was converted to cDNA sequentially through incubation at 55°C for 60 minutes using oligo (dT) and incubation at 85°C for 5 minutes, and the cDNA was stored at 4°C until being used. In addition, real-time quantitative PCR was performed using Universal SYBR Green Master Mix (Applied Biosystems, USA), and the cDNA was amplified under conditions described below. 95°C for 15 minutes, then 95°C for 30 seconds, 59°C for 30 seconds, and 72°C for 30 seconds were repeated 40 times. […]
To investigate the inhibitory effect of gancaonin on the expression levels of pro-inflammatory cytokines, the mRNA expression levels of tumor necrosis factor-α (hereinafter referred to as TNF-α), interleukin-1 beta (hereinafter referred to as IL-1β), and interleukin 6 (hereinafter referred to as IL-6) which are all known as pro-inflammatory cytokines were measured. […]

COc1ccc(-c2coc3cc(O)c(CC=C(C)C)c(O)c3c2=O)c(O)c1 [gancaonin N, 5,7-dihydroxy-3-(2-hydroxy-4-methoxyphenyl)-6-(3-methylbut-2-enyl)chromen-4-one]
mRNA expression of IL-1β: significantly inhibited

Source: patent publication EP4205737A1, “COMPOSITION FOR PREVENTION, AMELIORATION, OR TREATMENT OF INFLAMMATORY DISEASES OR IMMUNE DISEASES COMPRISING GANCAONIN N AS ACTIVE INGREDIENT” (UNIVERSITY-INDUSTRY COOPERATION GROUP OF KYUNG HEE …, priority 2020, dated 2022)
